The values that follow come from ChEMBL document CHEMBL1201862, “PubChem BioAssay data set” (2004).

One assay deals with DNA topoisomerase (Yersinia pestis, UniProt A0A2S9PM60). Put plainly: Yersinia topoisomerase I cleavage product accumulation – biochemical, cherry-pick, dose response (AID 588525).
The nature of assay [1]: Trypanosoma cruzi growth suppression in host cells – NIH3T3 host cells, beta-gal luminescence, confirmation (AID 2044).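 Note: intracellular parasites grown in NIH/3T3 mouse fibroblasts as host cells; luminescent beta-galactosidase reporter signal from transgenic T. cruzi replicating inside host cells; inhibitors lower the luminescence signal.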 The assay is classed as functional, cell-based.
The nature of assay [2]: alpha-synuclein stem-loop luciferase translation blockers – H4 neuroglioma cells, luminescence, confirmation (AID 1988). The assay is classed as functional, cell-based.
Assay [3] is described as follows: NIH3T3 cell viability loss – ATP luminescence, mouse fibroblasts, counter-screen, dose response (AID 2010).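 Note: cells exposed to compound for about 90 hours before reading.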 Format: functional, cell-based. In general terms: A counterscreen serves to expose hits that act by an unwanted route or on another target.
The nature of assay [4]: Luminescence Cell-Based Dose Response HTS to Identify Inhibitors of 5'UTR Stem-Loop Driven Prion Protein mRNA Translation in H4 Neuroglioblastoma Cells. [Related pubchem assays: 1827 (Project Summary), 1813 (Primary HTS)]. The assay is classed as functional.
A short description of assay [5]: luciferase reporter signal suppression in cells – H4 neuroglioma cells, luminescence, dose response (AID 1990). Format: functional, cell-based. For orientation: In a reporter assay the amount or activity of a reporter protein is the signal.
Assay [6] addresses Sphingosine 1-phosphate receptor 3 (Homo sapiens, UniProt Q99500). Put plainly: Late-stage fluorescence-based dose-response cell-based assay to identify agonists of the Sphingosine 1-Phosphate Receptor 4 (S1P4): Sphingosine 1-Phosphate Receptor 3 (S1P3) counterscreen assay. [Related pubchem assays (depositor defined):AID1509, AID1523, AID1563, AID1686, AID1701, AID1801, AID463107, AID463225, AID504400]. Format: functional.

The target of assay [7] is Sphingosine 1-phosphate receptor 4 (Homo sapiens, UniProt O95977). Put plainly: Late-stage fluorescence dose response cell-based counterscreening assay for agonists of the Sphingosine 1-Phosphate Receptor 4 (S1P4): inhibition by S1P4-selective antagonist. [Related pubchem assays (depositor defined):AID1509, AID1523, AID1563, AID1686, AID1701, AID1801, AID463107, AID463118, AID463119, AID463122, AID463123, AID463129, AID504400]. Format: functional.

The target in assay [8] is Sphingosine 1-phosphate receptor 5 (Homo sapiens, UniProt Q9H228). Put plainly: Late-stage fluorescence-based dose-response cell-based assay to identify agonists of the Sphingosine 1-Phosphate Receptor 4 (S1P4): Sphingosine 1-Phosphate Receptor 5 (S1P5) counterscreen assay. [Related pubchem assays (depositor defined):AID1509, AID1523, AID1563, AID1686, AID1701, AID1801, AID463107, AID463225, AID504400]. Format: functional.

Assay [9] has as its target Sphingosine 1-phosphate receptor 2 (Homo sapiens, UniProt O95136). As to the kind of experiment: Late-stage fluorescence-based dose-response cell-based assay to identify agonists of the Sphingosine 1-Phosphate Receptor 4 (S1P4): Sphingosine 1-Phosphate Receptor 2 (S1P2) counterscreen assay. [Related pubchem assays (depositor defined):AID1509, AID1523, AID1563, AID1686, AID1701, AID1801, AID463107, AID463225, AID504400]. The assay is classed as functional.

Assay [10] in a line: Late-stage assay provider results from the probe development effort to identify agonists of the Sphingosine 1-Phosphate Receptor 4 (S1P4): luminescence-based cell-based dose response assay to determine cytotoxicity of agonist compounds. [Related pubchem assays (depositor defined):AID1509, AID1523, AID1563, AID1686, AID1701, AID1801, AID463107, AID463225, AID504400]. The assay is classed as functional.

Assay [11] deals with Sphingosine 1-phosphate receptor 1 (Homo sapiens, UniProt P21453). Put plainly: Late-stage fluorescence-based dose-response cell-based assay to identify agonists of the Sphingosine 1-Phosphate Receptor 4 (S1P4): Sphingosine 1-Phosphate Receptor 1 (S1P1) counterscreen assay. [Related pubchem assays (depositor defined):AID1509, AID1523, AID1563, AID1686, AID1701, AID1801, AID463107, AID463225, AID504400]. The assay is classed as functional.

The target of assay [12] is Dual specificity protein kinase CLK1 (Homo sapiens, UniProt P49759). As to the kind of experiment: inhibition of human CLK1 activity – biochemical, cherry-picked samples, selectivity assay for Dyrk1A inhibitor project, dose response (AID 588811).

Active and inactive are the calls of the source. Unless noted, no cut-off for these calls is given here.

Sequence of Sphingosine 1-phosphate receptor 5 (Q9H228 whole entry): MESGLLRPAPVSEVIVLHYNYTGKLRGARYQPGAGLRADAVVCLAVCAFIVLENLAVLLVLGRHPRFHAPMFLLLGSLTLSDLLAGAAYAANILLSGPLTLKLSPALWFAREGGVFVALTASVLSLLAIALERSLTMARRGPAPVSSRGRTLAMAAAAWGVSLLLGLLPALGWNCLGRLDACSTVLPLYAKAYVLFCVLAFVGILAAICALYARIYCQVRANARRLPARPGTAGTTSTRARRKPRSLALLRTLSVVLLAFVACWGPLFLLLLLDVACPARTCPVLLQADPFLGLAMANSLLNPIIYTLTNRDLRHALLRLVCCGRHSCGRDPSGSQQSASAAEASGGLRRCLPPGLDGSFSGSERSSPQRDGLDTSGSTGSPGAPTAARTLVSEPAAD
Sequence of Sphingosine 1-phosphate receptor 4 (O95977 whole entry): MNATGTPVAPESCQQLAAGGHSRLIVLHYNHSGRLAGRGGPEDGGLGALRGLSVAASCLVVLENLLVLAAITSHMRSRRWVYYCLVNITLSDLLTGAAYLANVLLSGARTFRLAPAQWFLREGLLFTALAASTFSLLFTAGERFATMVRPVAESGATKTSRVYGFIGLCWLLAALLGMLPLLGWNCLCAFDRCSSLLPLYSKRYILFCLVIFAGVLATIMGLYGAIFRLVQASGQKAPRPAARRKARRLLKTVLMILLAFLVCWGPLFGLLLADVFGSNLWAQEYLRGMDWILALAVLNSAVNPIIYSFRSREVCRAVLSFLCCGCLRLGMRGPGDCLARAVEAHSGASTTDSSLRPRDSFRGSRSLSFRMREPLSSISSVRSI
Sequence of Sphingosine 1-phosphate receptor 2 (O95136 whole entry): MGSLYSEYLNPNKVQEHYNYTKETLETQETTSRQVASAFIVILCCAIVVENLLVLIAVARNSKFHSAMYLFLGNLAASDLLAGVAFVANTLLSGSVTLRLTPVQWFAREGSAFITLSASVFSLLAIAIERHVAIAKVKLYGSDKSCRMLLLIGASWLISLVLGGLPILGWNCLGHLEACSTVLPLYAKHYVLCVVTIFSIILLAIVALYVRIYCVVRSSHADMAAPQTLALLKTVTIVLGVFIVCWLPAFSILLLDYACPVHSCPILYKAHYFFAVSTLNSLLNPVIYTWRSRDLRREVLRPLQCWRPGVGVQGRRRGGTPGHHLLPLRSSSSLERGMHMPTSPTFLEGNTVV
Sequence of Sphingosine 1-phosphate receptor 3 (Q99500 whole entry): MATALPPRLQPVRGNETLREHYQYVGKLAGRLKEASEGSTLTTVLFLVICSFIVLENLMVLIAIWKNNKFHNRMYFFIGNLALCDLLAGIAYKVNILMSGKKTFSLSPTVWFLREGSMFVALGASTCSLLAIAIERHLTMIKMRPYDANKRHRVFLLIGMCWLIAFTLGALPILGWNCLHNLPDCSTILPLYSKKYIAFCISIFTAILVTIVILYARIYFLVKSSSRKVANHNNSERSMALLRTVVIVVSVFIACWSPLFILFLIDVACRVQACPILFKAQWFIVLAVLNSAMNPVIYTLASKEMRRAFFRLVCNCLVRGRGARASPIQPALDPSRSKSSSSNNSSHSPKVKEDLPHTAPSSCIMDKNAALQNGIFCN
Sequence of DNA topoisomerase (A0A2S9PM60 whole entry): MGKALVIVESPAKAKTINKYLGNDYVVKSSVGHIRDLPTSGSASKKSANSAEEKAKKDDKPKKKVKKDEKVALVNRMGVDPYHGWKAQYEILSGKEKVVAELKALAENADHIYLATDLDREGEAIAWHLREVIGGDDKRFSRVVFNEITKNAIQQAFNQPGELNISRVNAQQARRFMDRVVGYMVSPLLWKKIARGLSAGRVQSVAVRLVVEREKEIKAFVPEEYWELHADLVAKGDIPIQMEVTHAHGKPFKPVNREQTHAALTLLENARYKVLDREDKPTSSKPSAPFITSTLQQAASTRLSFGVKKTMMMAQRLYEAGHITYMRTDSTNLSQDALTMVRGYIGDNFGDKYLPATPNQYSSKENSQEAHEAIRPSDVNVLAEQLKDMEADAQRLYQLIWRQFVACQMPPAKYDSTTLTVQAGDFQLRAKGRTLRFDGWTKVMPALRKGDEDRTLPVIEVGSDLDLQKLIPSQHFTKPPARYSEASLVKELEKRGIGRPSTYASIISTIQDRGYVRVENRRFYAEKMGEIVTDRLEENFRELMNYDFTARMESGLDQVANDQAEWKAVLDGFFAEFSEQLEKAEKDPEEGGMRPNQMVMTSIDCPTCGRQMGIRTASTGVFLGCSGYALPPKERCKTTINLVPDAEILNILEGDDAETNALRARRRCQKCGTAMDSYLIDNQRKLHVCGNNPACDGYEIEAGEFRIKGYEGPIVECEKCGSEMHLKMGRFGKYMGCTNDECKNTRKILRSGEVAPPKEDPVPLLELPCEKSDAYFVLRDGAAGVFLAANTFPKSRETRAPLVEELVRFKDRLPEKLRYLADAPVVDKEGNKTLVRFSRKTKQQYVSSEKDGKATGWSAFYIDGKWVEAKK
Sequence of Sphingosine 1-phosphate receptor 1 (P21453 whole entry): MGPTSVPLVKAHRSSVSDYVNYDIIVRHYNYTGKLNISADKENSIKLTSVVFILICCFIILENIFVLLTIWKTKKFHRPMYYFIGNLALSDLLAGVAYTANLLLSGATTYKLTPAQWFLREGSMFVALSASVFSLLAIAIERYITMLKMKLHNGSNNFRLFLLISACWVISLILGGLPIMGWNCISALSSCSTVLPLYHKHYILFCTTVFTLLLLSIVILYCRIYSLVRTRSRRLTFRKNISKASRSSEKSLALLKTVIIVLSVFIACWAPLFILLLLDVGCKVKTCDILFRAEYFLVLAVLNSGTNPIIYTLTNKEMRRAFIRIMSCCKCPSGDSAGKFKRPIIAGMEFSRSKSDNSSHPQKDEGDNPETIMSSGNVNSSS
Sequence of Dual specificity protein kinase CLK1 (P49759 whole entry): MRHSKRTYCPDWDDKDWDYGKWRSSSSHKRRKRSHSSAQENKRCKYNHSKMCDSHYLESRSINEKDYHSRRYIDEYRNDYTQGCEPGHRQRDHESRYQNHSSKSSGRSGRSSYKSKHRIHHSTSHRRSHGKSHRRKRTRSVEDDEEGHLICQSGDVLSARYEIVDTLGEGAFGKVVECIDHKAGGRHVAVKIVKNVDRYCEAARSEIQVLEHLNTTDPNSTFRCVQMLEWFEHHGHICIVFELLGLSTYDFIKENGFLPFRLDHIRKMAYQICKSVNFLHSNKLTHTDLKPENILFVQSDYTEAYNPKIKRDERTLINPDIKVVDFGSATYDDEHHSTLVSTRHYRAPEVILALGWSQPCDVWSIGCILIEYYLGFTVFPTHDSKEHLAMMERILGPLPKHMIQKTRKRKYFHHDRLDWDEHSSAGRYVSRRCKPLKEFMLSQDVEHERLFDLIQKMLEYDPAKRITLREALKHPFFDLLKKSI

For orientation: AC50 means the concentration at which the activity in the assay is half-maximal. Usually EC50 stands for the concentration giving half of the maximal effect. Take `O=C(CSc1nnc(COc2ccc(Cl)cc2)o1)N1c2ccccc2CCc2ccccc21`: at DNA topoisomerase, the AC50 is 10.2 µM (active). The EC50 is 0.625 µM (active) in [1]; 15.2 µM (active) in assay [2]; < 6 µM (inconclusive) in assay [3]; 21.5 µM (active) in [4]; 23.5 µM (active) in assay [5].

Broadly, the IC50 is the midpoint of a concentration-inhibition curve. For orientation: CC50 means the concentration giving 50% cytotoxicity. With `Clc1ccc(OCCOc2ccc(Br)nc2Br)c(Cl)c1`, the EC50 in [6], in assay [8], in assay [9] and in assay [11] was > 50 µM (inactive) throughout. The IC50 in assay [7] is 0.83 µM (active). The CC50 in assay [10] is > 20 µM (inactive).

`CN(C)c1ccc(-c2nccc(NCc3cccs3)n2)cc1`: in assay [12], the AC50 was 0.265 µM (active).
